We go through 21 molecules from patent US7598258B2, “Quinoline derivatives and quinazoline derivatives inhibiting autophosphorylation of macrophage colony stimulating factor receptor” (Kirin Beer Kabushiki Kaisha, priority 2002, dated 2009).

For this test, the target named is T1, Human KDR (Homo sapiens, UniProt P35968).
T1 construct: expressed in transfected cells; host or cells: NIH3T3 cells (mouse fibroblasts)
Briefly: Inhibition of KDR phosphorylation in human KDR-transfected NIH3T3 cells (ELISA).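 For Selection ratio (KDR phosphorylation IC50 / c-fms phosphorylation IC50): class 2 means ratio of 10 or more and class 3 means 50 or more.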 The class given is cell-based. The settings on record: for Selection ratio (KDR phosphorylation IC50 / c-fms phosphorylation IC50): class 0-3; for IC50: human KDR-transfected NIH3T3 cells, VEGF 100 ng/ml, ELISA, read-out: KDR phosphorylation 50% inhibitory concentration (IC50). The method in brief: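 NIH3T3 cells transfected with human KDR, in 0.1% FCS medium, treated with compound 1 hr at 37° C, then stimulated with VEGF 100 ng/ml for 2 min. Lysate KDR phosphorylation measured by anti-phosphotyrosine capture/anti-KDR ELISA (A450); IC50 from inhibition normalized between VEGF-stimulated and unstimulated wells.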

T1 sequence (P35968 20-1356): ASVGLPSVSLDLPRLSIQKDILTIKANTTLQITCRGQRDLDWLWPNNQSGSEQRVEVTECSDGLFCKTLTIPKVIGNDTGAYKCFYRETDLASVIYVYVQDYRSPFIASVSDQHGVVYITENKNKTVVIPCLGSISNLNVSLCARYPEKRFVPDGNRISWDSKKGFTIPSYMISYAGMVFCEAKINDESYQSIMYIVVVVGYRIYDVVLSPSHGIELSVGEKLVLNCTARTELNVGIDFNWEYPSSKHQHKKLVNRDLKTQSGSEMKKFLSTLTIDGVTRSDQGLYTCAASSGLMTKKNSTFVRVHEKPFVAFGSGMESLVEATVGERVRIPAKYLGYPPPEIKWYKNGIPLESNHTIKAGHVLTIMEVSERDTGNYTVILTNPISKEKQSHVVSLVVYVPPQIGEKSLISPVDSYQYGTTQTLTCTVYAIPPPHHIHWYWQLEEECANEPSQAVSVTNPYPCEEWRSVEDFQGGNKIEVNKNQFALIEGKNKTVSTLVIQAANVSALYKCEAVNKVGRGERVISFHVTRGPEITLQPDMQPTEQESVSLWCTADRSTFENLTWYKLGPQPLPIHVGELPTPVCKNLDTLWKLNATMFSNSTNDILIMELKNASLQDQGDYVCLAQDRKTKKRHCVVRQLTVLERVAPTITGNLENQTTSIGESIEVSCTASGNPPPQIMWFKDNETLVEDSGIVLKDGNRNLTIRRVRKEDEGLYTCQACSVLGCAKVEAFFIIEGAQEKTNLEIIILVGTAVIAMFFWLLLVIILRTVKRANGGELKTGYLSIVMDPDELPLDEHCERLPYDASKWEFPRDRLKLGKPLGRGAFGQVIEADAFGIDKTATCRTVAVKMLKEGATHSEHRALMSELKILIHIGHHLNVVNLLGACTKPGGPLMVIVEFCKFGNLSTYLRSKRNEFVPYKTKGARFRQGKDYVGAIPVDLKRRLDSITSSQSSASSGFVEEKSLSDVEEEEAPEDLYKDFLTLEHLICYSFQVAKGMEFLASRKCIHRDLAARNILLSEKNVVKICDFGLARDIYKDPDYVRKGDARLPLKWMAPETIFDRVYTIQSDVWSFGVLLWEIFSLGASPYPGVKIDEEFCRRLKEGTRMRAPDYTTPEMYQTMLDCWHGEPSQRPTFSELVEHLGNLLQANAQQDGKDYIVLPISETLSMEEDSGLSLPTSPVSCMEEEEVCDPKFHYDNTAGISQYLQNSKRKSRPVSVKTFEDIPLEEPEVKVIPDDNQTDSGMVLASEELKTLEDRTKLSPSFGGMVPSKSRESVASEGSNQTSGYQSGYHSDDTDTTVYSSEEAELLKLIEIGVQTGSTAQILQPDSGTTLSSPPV

As for `COc1cc(Oc2ccnc3cc(OC)c(OC)cc23)ccc1NC(=O)NC(C)c1nc(C)c(C)s1` (stereo not drawn) [Example 99, N-{4-[(6,7-Dimethoxy-4-quinolyl)oxy]-2-methoxyphenyl}-N′-[1-(4,5-dimethyl-1,3-thiazol-2-yl)ethyl]urea], the “Selection ratio (KDR phosphorylation IC50 / c-fms phosphorylation IC50)” value is on record as 2 (when the value was 10 or more) and the IC50 amounted to 0.292 µM.

For `COc1cc2nccc(Oc3ccc(NC(=O)N[C@@H](C)c4ccc(Br)cc4)cc3)c2cc1OC` [Example 34, N-[(1S)-1-(4-Bromophenyl)ethyl]-N′-{4-[(6,7-dimethoxy-4-quinolyl)oxy]phenyl}urea], the “Selection ratio (KDR phosphorylation IC50 / c-fms phosphorylation IC50)” value is 2 (when the value was 10 or more) and the IC50 worked out at 0.296 µM.

For the molecule `COc1cc2nccc(Oc3ccc(NC(=O)NC(C)c4ccc(F)cc4)c(C(F)(F)F)c3)c2cc1OC` (stereo not drawn) [Example 19, N-[4-[(6,7-Dimethoxy-4-quinolyl)oxy]-2-(trifluoromethyl)phenyl]-N′-[1-(4-fluorophenyl)ethyl]urea], the “Selection ratio (KDR phosphorylation IC50 / c-fms phosphorylation IC50)” value was 0 (KDR phosphorylation 50% inhibitory concentration [μM]/c-fms phosphorylation 50% inhibitory concentration [μM] was less than 5) and the IC50 is 0.0015 µM.

Take `COc1cc2nccc(Oc3ccc(NC(=O)NC(C)c4ncc(C)s4)c(C(F)(F)F)c3)c2cc1OC` (stereo not drawn) [Example 104, N-[4-[(6,7-Dimethoxy-4-quinolyl)oxy]-2-(trifluoromethyl)phenyl]-N′-[1-(5-methyl-1,3-thiazol-2-yl)ethyl]urea]: the “Selection ratio (KDR phosphorylation IC50 / c-fms phosphorylation IC50)” value was 0 (KDR phosphorylation 50% inhibitory concentration [μM]/c-fms phosphorylation 50% inhibitory concentration [μM] was less than 5) and the IC50 was found to be 0.0361 µM.

For `COc1cc2nccc(Oc3ccc(NC(=O)N[C@H](C)c4cccc(Br)c4)c(C(F)(F)F)c3)c2cc1OC` [Example 60, N-[(1R)-1-(3-Bromophenyl)ethyl]-N′-[4-[(6,7-dimethoxy-4-quinolyl)oxy]-2-(trifluoromethyl)phenyl]urea], the “Selection ratio (KDR phosphorylation IC50 / c-fms phosphorylation IC50)” value is 0 (KDR phosphorylation 50% inhibitory concentration [μM]/c-fms phosphorylation 50% inhibitory concentration [μM] was less than 5) and the IC50 was 0.0019 µM.

In the case of `COc1cc2nccc(Oc3ccc(NC(=O)N[C@H](C)c4ccc(F)cc4)c(C)c3)c2cc1OC` [Example 15, N-{4-[(6,7-Dimethoxy-4-quinolyl)oxy]-2-methylphenyl}-N′-[(1R)-1-(4-fluorophenyl)ethyl]urea], the “Selection ratio (KDR phosphorylation IC50 / c-fms phosphorylation IC50)” value is 0 (KDR phosphorylation 50% inhibitory concentration [μM]/c-fms phosphorylation 50% inhibitory concentration [μM] was less than 5) and the IC50 was under 0.001 µM.

Take `COc1cc2nccc(Oc3ccc(NC(=O)N[C@H](C)c4ccc(F)cc4)c(C)c3C)c2cc1OC` [Example 27, N-{4-[(6,7-Dimethoxy-4-quinolyl)oxy]-2,3-dimethylphenyl}-N′-[(1R)-1-(4-fluorophenyl)ethyl]urea]: the “Selection ratio (KDR phosphorylation IC50 / c-fms phosphorylation IC50)” value was 0 (KDR phosphorylation 50% inhibitory concentration [μM]/c-fms phosphorylation 50% inhibitory concentration [μM] was less than 5) and the IC50 came out at 0.002 µM.

`COc1cc(Oc2ccnc3cc(OC)c(OC)cc23)ccc1NC(=O)NC(C)c1nc(C)cs1` (stereo not drawn) [Example 90, N-{4-[(6,7-Dimethoxy-4-quinolyl)oxy]-2-methoxyphenyl}-N′-[1-(4-methyl-1,3-thiazol-2-yl)ethyl]urea]: the “Selection ratio (KDR phosphorylation IC50 / c-fms phosphorylation IC50)” value is listed as 2 (when the value was 10 or more) and the IC50 was 0.111 µM.

In the case of `COc1cc2nccc(Oc3ccc(NC(=O)NC(C)c4nc(C)cs4)cc3)c2cc1OC` (stereo not drawn) [Example 91, N-{4-[(6,7-Dimethoxy-4-quinolyl)oxy]phenyl}-N′-[1-(4-methyl-1,3-thiazol-2-yl)ethyl]urea], the “Selection ratio (KDR phosphorylation IC50 / c-fms phosphorylation IC50)” value is on record as 1 (when the value was 5 or more) and the IC50 was 0.0288 µM.

Regarding `COc1cc2nccc(Oc3ccc(NC(=O)NC(C)c4nccs4)cc3OC)c2cc1OC` (stereo not drawn) [Example 80, N-{4-[(6,7-Dimethoxy-4-quinolyl)oxy]-3-methoxyphenyl}-N′-[1-(1,3-thiazol-2-yl)ethyl]urea], the “Selection ratio (KDR phosphorylation IC50 / c-fms phosphorylation IC50)” value is listed as 3 (when the value was 50 or more) and the IC50 was 0.526 µM.

As to `COc1cc(Oc2ccnc3cc(OC)c(OC)cc23)ccc1NC(=O)N[C@H](C)c1ccc(F)cc1` [Example 18, N-{4-[(6,7-Dimethoxy-4-quinolyl)oxy]-2-methoxyphenyl}-N′-[(1R)-1-(4-fluorophenyl)ethyl]urea], the “Selection ratio (KDR phosphorylation IC50 / c-fms phosphorylation IC50)” value is 0 (KDR phosphorylation 50% inhibitory concentration [μM]/c-fms phosphorylation 50% inhibitory concentration [μM] was less than 5) and the IC50 was determined as 0.0018 µM.

For `COc1cc2nccc(Oc3ccc(NC(=O)N[C@H](C)c4cccc(Br)c4)cc3OC)c2cc1OC` [Example 61, N-[(1R)-1-(3-Bromophenyl)ethyl]-N′-{4-[(6,7-dimethoxy-4-quinolyl)oxy]-3-methoxyphenyl}urea], the “Selection ratio (KDR phosphorylation IC50 / c-fms phosphorylation IC50)” value was 0 (KDR phosphorylation 50% inhibitory concentration [μM]/c-fms phosphorylation 50% inhibitory concentration [μM] was less than 5) and the IC50 is 0.0192 µM.

Take `COc1cc2nccc(Oc3ccc(NC(=O)N[C@H](C)c4cccc(Br)c4)c(C)c3C)c2cc1OC` [Example 62, N-[(1R)-1-(3-Bromophenyl)ethyl]-N′-{4-[(6,7-dimethoxy-4-quinolyl)oxy]-2,3-dimethylphenyl}urea]: the “Selection ratio (KDR phosphorylation IC50 / c-fms phosphorylation IC50)” value was 0 (KDR phosphorylation 50% inhibitory concentration [μM]/c-fms phosphorylation 50% inhibitory concentration [μM] was less than 5) and the IC50 was determined as 0.0027 µM.

As to `COc1cc2nccc(Oc3ccc(NC(=O)N[C@H](C)c4nccs4)cc3)c2cc1OC` [Example 79, N-{4-[(6,7-Dimethoxy-4-quinolyl)oxy]phenyl}-N′-[(1R)-1-(1,3-thiazol-2-yl)ethyl]urea], the “Selection ratio (KDR phosphorylation IC50 / c-fms phosphorylation IC50)” value was 2 (when the value was 10 or more) and the IC50 amounted to 0.0952 µM.

For the molecule `COc1cc2nccc(Oc3ccc(NC(=O)N[C@H](C)c4ccc(F)cc4)c(C(F)(F)F)c3)c2cc1OC` [Example 21, N-[4-[(6,7-Dimethoxy-4-quinolyl)oxy]-2-(trifluoromethyl)phenyl]-N′-[(1R)-1-(4-fluorophenyl)ethyl]urea], the “Selection ratio (KDR phosphorylation IC50 / c-fms phosphorylation IC50)” value was 0 (KDR phosphorylation 50% inhibitory concentration [μM]/c-fms phosphorylation 50% inhibitory concentration [μM] was less than 5) and the IC50 came out at 0.0021 µM.

For `COc1cc2nccc(Oc3ccc(NC(=O)NC(C)c4nc(C)cs4)c(F)c3)c2cc1OC` (stereo not drawn) [Example 88, N-{4-[(6,7-Dimethoxy-4-quinolyl)oxy]-2-fluorophenyl}-N′-[1-(4-methyl-1,3-thiazol-2-yl)ethyl]urea], the “Selection ratio (KDR phosphorylation IC50 / c-fms phosphorylation IC50)” value is 0 (KDR phosphorylation 50% inhibitory concentration [μM]/c-fms phosphorylation 50% inhibitory concentration [μM] was less than 5) and the IC50 turned out to be 0.0087 µM.

`COc1cc2nccc(Oc3cc(C)c(NC(=O)N[C@@H](C)c4nccs4)cc3C)c2cc1OC` [Example 86, N-{4-[(6,7-Dimethoxy-4-quinolyl)oxy]-2,5-dimethylphenyl}-N′-[(1S)-1-(1,3-thiazol-2-yl)ethyl]urea]: the “Selection ratio (KDR phosphorylation IC50 / c-fms phosphorylation IC50)” value is listed as 2 (when the value was 10 or more) and the IC50 came to 0.208 µM.

As to `COc1cc2nccc(Oc3ccc(NC(=O)N[C@@H](C)c4nccs4)c(F)c3)c2cc1OC` [Example 71, N-{4-[(6,7-Dimethoxy-4-quinolyl)oxy]-2-fluorophenyl}-N′-[(1S)-1-(1,3-thiazol-2-yl)ethyl]urea], the “Selection ratio (KDR phosphorylation IC50 / c-fms phosphorylation IC50)” value was 2 (when the value was 10 or more) and the IC50 is 0.0399 µM.

For the molecule `COc1cc2nccc(Oc3ccc(NC(=O)N[C@@H](C)c4ccc(F)cc4)cc3Cl)c2cc1OC` [Example 11, N-{3-Chloro-4-[(6,7-dimethoxy-4-quinolyl)oxy]phenyl}-N′-[(1S)-1-(4-fluorophenyl)ethyl]urea], the “Selection ratio (KDR phosphorylation IC50 / c-fms phosphorylation IC50)” value is recorded as 2 (when the value was 10 or more) and the IC50 stood at 0.123 µM.

Take `COc1cc2c(Oc3ccc(NC(=O)NC(C)c4ccc(F)cc4F)c(F)c3)ccnc2cc1OCCCN1CCOCC1` (stereo not drawn) [Example 69, N-[1-(2,4-Difluorophenyl)ethyl]-N′-(2-fluoro-4-{[6-methoxy-7-(3-morpholinopropoxy)-4-quinolyl]oxy}phenyl)urea]: the “Selection ratio (KDR phosphorylation IC50 / c-fms phosphorylation IC50)” value is 0 (KDR phosphorylation 50% inhibitory concentration [μM]/c-fms phosphorylation 50% inhibitory concentration [μM] was less than 5) and the IC50 worked out at 0.0052 µM.

Regarding `COc1cc2nccc(Oc3ccc(NC(=O)NC(C)c4ccc(F)cc4)cc3F)c2cc1OC` (stereo not drawn) [Example 31, N-{4-[(6,7-Dimethoxy-4-quinolyl)oxy]-3-fluorophenyl}-N′-[1-(4-fluorophenyl)ethyl]urea], the “Selection ratio (KDR phosphorylation IC50 / c-fms phosphorylation IC50)” value is 0 (KDR phosphorylation 50% inhibitory concentration [μM]/c-fms phosphorylation 50% inhibitory concentration [μM] was less than 5) and the IC50 stood at 0.001 µM.
